Laboratory results as given in patent publication US6737383B1, “Herbicidal oxadiazolidines” (priority 1999, dated 2004).

Key:
[1] = system: morningglory; assay: Test B pre/postemergence morningglory; format: in vivo, Ipomoea hederacea
How it was run: (§1)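 Response is a visual 0-to-10 score relative to untreated plants, where 0 means no effect and 10 means complete control, taken twelve to sixteen days after application. Treatments went onto soil at planting and onto foliage of 1- to 4-leaf plants, using a surfactant-containing non-phytotoxic solvent.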

[2] = system: cocklebur; assay: Test B pre/postemergence cocklebur; format: in vivo, Xanthium strumarium
How it was run: as §1

[3] = system: purple nutsedge; assay: Test B pre/postemergence purple nutsedge; format: in vivo, Cyperus rotundus
How it was run: as §1

[4] = system: corn; assay: Test B pre/postemergence corn; format: in vivo, Zea mays
How it was run: as §1

[5] = system: blackgrass; assay: Test B pre/postemergence blackgrass; format: in vivo, Alopecurus myosuroides
How it was run: as §1

[6] = system: velvetleaf; assay: Test B pre/postemergence velvetleaf; format: in vivo, Abutilon theophrasti
How it was run: as §1

[7] = system: crabgrass; assay: Test B pre/postemergence crabgrass; format: in vivo, Digitaria sanguinalis
How it was run: as §1

[8] = system: giant foxtail; assay: Test B pre/postemergence giant foxtail; format: in vivo, Setaria faberii
How it was run: as §1

[9] = system: wild oat; assay: Test B pre/postemergence wild oat; format: in vivo, Avena fatua
How it was run: as §1

[10] = system: pigweed; assay: Test B pre/postemergence pigweed; format: in vivo, Amaranthus retroflexus
How it was run: as §1

[11] = system: bedstraw; assay: Test B pre/postemergence bedstraw; format: in vivo, Galium aparine
How it was run: as §1

[12] = system: wheat; assay: Test B pre/postemergence wheat; format: in vivo, Triticum aestivum
How it was run: as §1

[13] = system: sugar beet; assay: Test B pre/postemergence sugar beet; format: in vivo, Beta vulgaris
How it was run: as §1

[14] = system: soybean; assay: Test B pre/postemergence soybean; format: in vivo, Glycine max
How it was run: as §1

[15] = system: rape; assay: Test B pre/postemergence rape; format: in vivo, Brassica napus
How it was run: as §1

[16] = system: surinam grass; assay: Test B pre/postemergence surinam grass; format: in vivo, Brachiaria decumbens
How it was run: as §1

[17] = Postemergence, Rate 62 g/ha, scale 0 to 10, 0 is no effect, 10 is complete control
[18] = Postemergence, Rate 125 g/ha, scale of 0 to 10 where 0 is no effect and 10 is complete control
[19] = Postemergence, Rate 500 g/ha, scale 0 (no effect) to 10 (complete control)
[20] = Rate 62 g/ha, Preemergence, scale 0 to 10
[21] = Rate 125 g/ha, Preemergence, scale 0 to 10 (0 no effect, 10 complete control)
[22] = Rate 250 g/ha, Postemergence, scale 0 to 10, 0 is no effect, 10 is complete control
[23] = Rate 500 g/ha, Preemergence, scale 0 to 10 (0 no effect, 10 complete control)
[24] = Preemergence, Rate 250 g/ha, scale 0 (no effect) to 10 (complete control)

CON=CC(C)n1c(=O)on(C(=O)N(c2ccccc2)C(C)C)c1=O (centres unmarked) [Compound 790]
lo: Giant foxtail plant response rating [8, 24]
6: Wild oats plant response rating [9, 21] | Redroot pigweed plant response rating [10, 21] | B. signalgrass plant response rating [16, 18]
2: Plant response rating, Morningglory [1, 17] | Corn plant response rating [4, 18] | Corn plant response rating [4, 20] | Velvetleaf plant response rating [6, 21] | Redroot pigweed plant response rating [10, 20] | Plant response rating, Wheat [12, 17] | Wheat plant response rating [12, 21] | Sugarbeets plant response rating [13, 21] | Plant response rating, Soybean [14, 17] | Soybean plant response rating [14, 23] | Rape plant response rating [15, 20] | Plant response rating, B. signalgrass [16, 17]
0: Morningglory plant response rating [1, 20] | Morningglory plant response rating [1, 21] | Plant response rating, Cocklebur [2, 17] | Cocklebur plant response rating [2, 18] | Cocklebur plant response rating [2, 19] | Cocklebur plant response rating [2, 20] | Cocklebur plant response rating [2, 21] | Cocklebur plant response rating [2, 22] | Plant response rating, Nutsedge [3, 17] | Nutsedge plant response rating [3, 18] | Nutsedge plant response rating [3, 20] | Nutsedge plant response rating [3, 21] | Nutsedge plant response rating [3, 23] | Plant response rating, Corn [4, 17] | Velvetleaf plant response rating [6, 20] | Plant response rating, Wild oats [9, 17] | Wild oats plant response rating [9, 20] | Wild oats plant response rating [9, 22] | Plant response rating, Redroot pigweed [10, 17] | Plant response rating, Bedstraw [11, 17] | Bedstraw plant response rating [11, 18] | Bedstraw plant response rating [11, 20] | Bedstraw plant response rating [11, 22] | Wheat plant response rating [12, 20] | Plant response rating, Sugarbeets [13, 17] | Sugarbeets plant response rating [13, 22] | Soybean plant response rating [14, 20] | Soybean plant response rating [14, 21] | Plant response rating, Rape [15, 17] | Rape plant response rating [15, 18]
1: Sugarbeets plant response rating [13, 20]
7: Morningglory plant response rating [1, 22] | Morningglory plant response rating [1, 23] | Nutsedge plant response rating [3, 19] | Corn plant response rating [4, 21] | Velvetleaf plant response rating [6, 19] | Velvetleaf plant response rating [6, 23] | Bedstraw plant response rating [11, 24] | Sugarbeets plant response rating [13, 19] | Sugarbeets plant response rating [13, 23] | B. signalgrass plant response rating [16, 22] | B. signalgrass plant response rating ([16]; Rate 500 g/ha, Postemergence, scale 0 to 10, 0 is no effect, 10 is complete control)
10: Morningglory plant response rating [1, 19] | Cocklebur plant response rating [2, 24] | Cocklebur plant response rating [2, 23] | Blackgrass plant response rating [5, 23] | Crabgrass plant response rating [7, 24] | Crabgrass plant response rating [7, 20] | Crabgrass plant response rating [7, 21] | Crabgrass plant response rating [7, 23] | Giant foxtail plant response rating [8, 20] | Giant foxtail plant response rating [8, 21] | Giant foxtail plant response rating [8, 23] | Wild oats plant response rating [9, 23] | Redroot pigweed plant response rating [10, 23]
4: Morningglory plant response rating [1, 18] | Corn plant response rating [4, 19] | Corn plant response rating [4, 22] | Plant response rating, Blackgrass [5, 17] | Plant response rating, Velvetleaf [6, 17] | Wheat plant response rating [12, 22] | Soybean plant response rating [14, 19] | Soybean plant response rating [14, 22] | Rape plant response rating [15, 21]
9: Corn plant response rating [4, 23] | Blackgrass plant response rating [5, 24] | Blackgrass plant response rating [5, 21] | Plant response rating, Crabgrass [7, 17] | Crabgrass plant response rating [7, 19] | Crabgrass plant response rating [7, 22] | Plant response rating, Giant foxtail [8, 17] | Giant foxtail plant response rating [8, 18] | Bedstraw plant response rating [11, 23] | Wheat plant response rating [12, 23] | B. signalgrass plant response rating [16, 24] | B. signalgrass plant response rating [16, 21] | B. signalgrass plant response rating [16, 23]
5: Nutsedge plant response rating [3, 22] | Blackgrass plant response rating [5, 18] | Blackgrass plant response rating [5, 19] | Blackgrass plant response rating [5, 22] | Velvetleaf plant response rating [6, 22] | Redroot pigweed plant response rating [10, 18] | Redroot pigweed plant response rating [10, 19] | Redroot pigweed plant response rating [10, 22] | Bedstraw plant response rating [11, 19] | Wheat plant response rating [12, 19]
3: Wild oats plant response rating [9, 19] | Bedstraw plant response rating [11, 21] | Rape plant response rating [15, 19] | Rape plant response rating [15, 22]
8: Corn plant response rating [4, 24] | Blackgrass plant response rating [5, 20] | Giant foxtail plant response rating [8, 19] | Giant foxtail plant response rating [8, 22] | Rape plant response rating [15, 23] | B. signalgrass plant response rating ([16]; Rate 62 g/ha, Preemergence, scale 0 (no effect) to 10 (complete control))
